From the NIST ThermoML archive (doi:10.1021/je100407f)
Where “and” joins values, the source holds several entries; their conditions need not be identical. Equal values may be shown once. ± gives the expanded uncertainty stated by the source.

Conditions: 101 kPa, Liquid mixture 1, Ring tensiometer

Row | SMILES | interfacial tension (283.15 K) | interfacial tension (293.15 K) | interfacial tension (303.15 K) | interfacial tension (313.15 K) | interfacial tension (323.15 K) | interfacial tension (333.15 K)
1 | CCCCn1cc[n+](C)c1.F[P-](F)(F)(F)(F)F [1-butyl-3-methylimidazolium hexafluorophosphate] + CCCCCCC | 14.81 ± 0.32 mN/m | 14.69 ± 0.32 mN/m | 14.67 ± 0.32 mN/m | 14.59 ± 0.32 mN/m | 14.5 ± 0.32 mN/m | 14.41 ± 0.32 mN/m
2 | CCCCCCn1cc[n+](C)c1.F[P-](F)(F)(F)(F)F [1-hexyl-3-methylimidazolium hexafluorophosphate] + CCCCCC | 9.01 ± 0.26 mN/m | 8.9 ± 0.26 mN/m | 8.83 ± 0.26 mN/m | 8.84 ± 0.26 mN/m | 8.73 ± 0.26 mN/m | 8.68 ± 0.26 mN/m
3 | CCCCCCn1cc[n+](C)c1.F[P-](F)(F)(F)(F)F [1-hexyl-3-methylimidazolium hexafluorophosphate] + CCCCCCC | 8.86 ± 0.26 mN/m | 8.74 ± 0.26 mN/m | 8.73 ± 0.26 mN/m | 8.69 ± 0.26 mN/m | 8.54 ± 0.26 mN/m | 8.47 ± 0.26 mN/m
4 | CCCCCn1cc[n+](C)c1.F[P-](F)(F)(F)(F)F [1-methyl-3-pentylimidazolium hexafluorophosphate] + CCCCCC | 12.37 ± 0.3 mN/m | 11.92 ± 0.29 mN/m |  | 12 ± 0.29 mN/m and 11.93 ± 0.29 mN/m | 11.78 ± 0.29 mN/m | 11.67 ± 0.29 mN/m
5 | CCCCCn1cc[n+](C)c1.F[P-](F)(F)(F)(F)F [1-methyl-3-pentylimidazolium hexafluorophosphate] + CCCCCCC | 12.23 ± 0.3 mN/m | 12.12 ± 0.29 mN/m | 12.02 ± 0.29 mN/m | 11.9 ± 0.29 mN/m | 11.63 ± 0.29 mN/m | 11.53 ± 0.29 mN/m
6 | CCCCCCCC[n+]1ccn(C)c1.F[P-](F)(F)(F)(F)F [1-octyl-3-methylimidazolium hexafluorophosphate] + CCCCCC | 4.89 ± 0.23 mN/m | 4.77 ± 0.23 mN/m | 4.66 ± 0.23 mN/m | 4.52 ± 0.22 mN/m | 4.45 ± 0.22 mN/m | 4.46 ± 0.22 mN/m
